Tests used:
Type in all cases: in vivo
[1] = system: ivy-leaved morning glory (Ipomoea hederacea); experiment: Test G Pre-Emergence Protocol; settings: Ipomoea, pre-emergence, 312 h, evaluated after 13 days; for pest or weed control at 15.625 g/ha: 15.625 g ai/ha, read-out: Morning-glory, Ivy-leaved damage rating (100=total damage to plant; 0=no damage to plant); for pest or weed control at 62.5 g/ha: 62.5 g ai/ha, 100=total damage to plant, 0=no damage to plant, read-out: plant damage rating, Morningglory, Ivy-leaved; for pest or weed control at 250 g/ha: 250 g ai/ha, read-out: Morningglory, Ivy-leaved damage rating (100=total damage to plant; 0=no damage to plant)
Outline: (§1)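 Glasshouse pre-emergence test: soil-sown seeds, sprayed after 1 d at 15.625, 62.5 or 250 g/ha. Conditions 24/16° C day/night, 14 h light, 65% humidity, watering twice daily. Rating 13 d post-spray (100 = total damage).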

[2] = system: velvetleaf (Abutilon theophrasti); experiment: Test G Pre-Emergence Protocol; settings: Abutilon theophrasti, pre-emergence, 312 h, evaluated after 13 days; for pest or weed control at 15.625 g/ha: 15.625 g ai/ha; for pest or weed control at 15.625 g/ha / pest or weed control at 250 g/ha: read-out: Velvetleaf damage rating (100=total damage to plant; 0=no damage to plant); for pest or weed control at 62.5 g/ha: 62.5 g ai/ha, 100=total damage to plant, 0=no damage to plant, read-out: plant damage rating, Velvetleaf; for pest or weed control at 250 g/ha: 250 g ai/ha
Outline: as §1

[3] = system: redroot pigweed (Amaranthus retroflexus); experiment: Test G Pre-Emergence Protocol; settings: Amaranthus retroflexus, pre-emergence, 312 h, evaluated after 13 days; for pest or weed control at 15.625 g/ha: 15.625 g ai/ha; for pest or weed control at 15.625 g/ha / pest or weed control at 250 g/ha: read-out: Pigweed, Redroot damage rating (100=total damage to plant; 0=no damage to plant); for pest or weed control at 62.5 g/ha: 62.5 g ai/ha, 100=total damage to plant, 0=no damage to plant, read-out: plant damage rating, Pigweed, Redroot; for pest or weed control at 250 g/ha: 250 g ai/ha
Outline: as §1

corn (Zea mays) [4] = experiment: Test G Pre-Emergence Protocol; settings: Zea mays, pre-emergence, 312 h, evaluated after 13 days; for plant injury at 15.625 g/ha: 15.625 g ai/ha; for plant injury at 15.625 g/ha / plant injury at 250 g/ha: read-out: Corn damage rating (100=total damage to plant; 0=no damage to plant); for plant injury at 62.5 g/ha: 62.5 g ai/ha, 100=total damage to plant, 0=no damage to plant, read-out: plant damage rating, Corn; for plant injury at 250 g/ha: 250 g ai/ha
Outline: as §1

[5] = system: giant foxtail (Setaria faberi); experiment: Test G Pre-Emergence Protocol; settings: Setaria faberi, pre-emergence, 312 h, evaluated after 13 days; for pest or weed control at 15.625 g/ha: 15.625 g ai/ha; for pest or weed control at 15.625 g/ha / pest or weed control at 250 g/ha: read-out: Foxtail, Giant damage rating (100=total damage to plant; 0=no damage to plant); for pest or weed control at 62.5 g/ha: 62.5 g ai/ha, 100=total damage to plant, 0=no damage to plant, read-out: plant damage rating, Foxtail, Giant; for pest or weed control at 250 g/ha: 250 g ai/ha
Outline: as §1

[6] = system: barnyardgrass (Echinochloa crus-galli); experiment: Test G Pre-Emergence Protocol; settings: Echinochloa crus-galli, pre-emergence, 312 h, evaluated after 13 days; for pest or weed control at 15.625 g/ha: 15.625 g ai/ha, read-out: Barnyard grass damage rating (100=total damage to plant; 0=no damage to plant); for pest or weed control at 62.5 g/ha: 62.5 g ai/ha, 100=total damage to plant, 0=no damage to plant, read-out: plant damage rating, Barnyardgrass; for pest or weed control at 250 g/ha: 250 g ai/ha, read-out: Barnyardgrass damage rating (100=total damage to plant; 0=no damage to plant)
Outline: as §1

[7] = system: ivy-leaved morning glory (Ipomoea hederacea); experiment: Test G Post-Emergence Protocol; settings: Ipomoea, post-emergence, 312 h; for pest or weed control at 15.625 g/ha: 15.625 g ai/ha, evaluated after 13 days (100=total damage to plant; 0=no damage to plant), read-out: Morningglory, Ivy-leaved damage rating; for pest or weed control at 62.5 g/ha: 62.5 g ai/ha, read-out: Morningglory, Ivy-leaved damage rating (100=total damage to plant; 0=no damage to plant); for pest or weed control at 62.5 g/ha / pest or weed control at 250 g/ha: evaluated after 13 days; for pest or weed control at 250 g/ha: 250 g ai/ha, read-out: damage to plant, Morningglory, Ivy-leaved (100=total damage to plant; 0=no damage to plant)
Outline: (§2)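 A glasshouse post-emergence test: 8-day-old plants sprayed at 15.625, 62.5 or 250 g/ha, then grown at 24/16 °C day/night with 14 h light and 65% humidity. Damage rated 13 days later, 0–100.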

[8] = system: velvetleaf (Abutilon theophrasti); experiment: Test G Post-Emergence Protocol; settings: Abutilon theophrasti, post-emergence, 312 h; for pest or weed control at 15.625 g/ha: 15.625 g ai/ha, evaluated after 13 days (100=total damage to plant; 0=no damage to plant), read-out: Velvetleaf damage rating; for pest or weed control at 62.5 g/ha: 62.5 g ai/ha, read-out: Velvetleaf damage rating (100=total damage to plant; 0=no damage to plant); for pest or weed control at 62.5 g/ha / pest or weed control at 250 g/ha: evaluated after 13 days; for pest or weed control at 250 g/ha: 250 g ai/ha, read-out: damage to plant, Velvetleaf (100=total damage to plant; 0=no damage to plant)
Outline: as §2

[9] = system: redroot pigweed (Amaranthus retroflexus); experiment: Test G Post-Emergence Protocol; settings: Amaranthus retroflexus, post-emergence, 312 h; for pest or weed control at 15.625 g/ha: 15.625 g ai/ha, evaluated after 13 days (100=total damage to plant; 0=no damage to plant), read-out: Pigweed, Redroot damage rating; for pest or weed control at 62.5 g/ha: 62.5 g ai/ha, read-out: Pigweed, Redroot damage rating (100=total damage to plant; 0=no damage to plant); for pest or weed control at 62.5 g/ha / pest or weed control at 250 g/ha: evaluated after 13 days; for pest or weed control at 250 g/ha: 250 g ai/ha, read-out: damage to plant, Pigweed, Redroot (100=total damage to plant; 0=no damage to plant)
Outline: as §2

corn (Zea mays) [10] = experiment: Test G Post-Emergence Protocol; settings: Zea mays, post-emergence, 312 h; for plant injury at 15.625 g/ha: 15.625 g ai/ha, evaluated after 13 days (100=total damage to plant; 0=no damage to plant), read-out: Corn damage rating; for plant injury at 62.5 g/ha: 62.5 g ai/ha, read-out: Corn damage rating (100=total damage to plant; 0=no damage to plant); for plant injury at 62.5 g/ha / plant injury at 250 g/ha: evaluated after 13 days; for plant injury at 250 g/ha: 250 g ai/ha, read-out: damage to plant, Corn (100=total damage to plant; 0=no damage to plant)
Outline: as §2

[11] = system: giant foxtail (Setaria faberi); experiment: Test G Post-Emergence Protocol; settings: Setaria faberi, post-emergence, 312 h; for pest or weed control at 15.625 g/ha: 15.625 g ai/ha, evaluated after 13 days (100=total damage to plant; 0=no damage to plant), read-out: Foxtail, Giant damage rating; for pest or weed control at 62.5 g/ha: 62.5 g ai/ha, read-out: Foxtail, Giant damage rating (100=total damage to plant; 0=no damage to plant); for pest or weed control at 62.5 g/ha / pest or weed control at 250 g/ha: evaluated after 13 days; for pest or weed control at 250 g/ha: 250 g ai/ha, read-out: damage to plant, Foxtail, Giant (100=total damage to plant; 0=no damage to plant)
Outline: as §2

[12] = system: barnyardgrass (Echinochloa crus-galli); experiment: Test G Post-Emergence Protocol; settings: Echinochloa crus-galli, post-emergence, 312 h; for pest or weed control at 15.625 g/ha: 15.625 g ai/ha, evaluated after 13 days (100=total damage to plant; 0=no damage to plant), read-out: Barnyardgrass damage rating; for pest or weed control at 62.5 g/ha: 62.5 g ai/ha, read-out: Barnyardgrass damage rating (100=total damage to plant; 0=no damage to plant); for pest or weed control at 62.5 g/ha / pest or weed control at 250 g/ha: evaluated after 13 days; for pest or weed control at 250 g/ha: 250 g ai/ha, read-out: damage to plant, Barnyardgrass (100=total damage to plant; 0=no damage to plant)
Outline: as §2

SMILES	pest or weed control at 15.625 g/ha [1] [%]	pest or weed control at 62.5 g/ha [1] [%]	pest or weed control at 250 g/ha [1] [%]	pest or weed control at 15.625 g/ha [2] [%]	pest or weed control at 62.5 g/ha [2] [%]	pest or weed control at 250 g/ha [2] [%]	pest or weed control at 15.625 g/ha [3] [%]	pest or weed control at 62.5 g/ha [3] [%]	pest or weed control at 250 g/ha [3] [%]	plant injury at 15.625 g/ha (corn (Zea mays) [4]) [%]	plant injury at 62.5 g/ha (corn (Zea mays) [4]) [%]	plant injury at 250 g/ha (corn (Zea mays) [4]) [%]	pest or weed control at 15.625 g/ha [5] [%]	pest or weed control at 62.5 g/ha [5] [%]	pest or weed control at 250 g/ha [5] [%]	pest or weed control at 15.625 g/ha [6] [%]	pest or weed control at 62.5 g/ha [6] [%]	pest or weed control at 250 g/ha [6] [%]	pest or weed control at 15.625 g/ha [7] [%]	pest or weed control at 62.5 g/ha [7] [%]	also measured
C#Cc1ccccc1NC(=O)[C@H]1C(=O)N(C)C[C@@H]1c1ccc(C(F)(F)F)cc1 (racemic) [Compound 1422]	0	0	0	0	0	0	0	0	0	0	0	0	0	10	50	0	0	0	0	0	pest or weed control at 250 g/ha [7]: 0%; pest or weed control at 15.625 g/ha [8]: 0%; pest or weed control at 62.5 g/ha [8]: 0%; pest or weed control at 250 g/ha [8]: 0%; pest or weed control at 15.625 g/ha [9]: 0%; pest or weed control at 62.5 g/ha [9]: 0%; pest or weed control at 250 g/ha [9]: 0%; plant injury at 15.625 g/ha (corn (Zea mays) [10]): 10%; plant injury at 62.5 g/ha (corn (Zea mays) [10]): 10%; plant injury at 250 g/ha (corn (Zea mays) [10]): 0%; pest or weed control at 15.625 g/ha [11]: 0%; pest or weed control at 62.5 g/ha [11]: 0%; pest or weed control at 250 g/ha [11]: 20%; pest or weed control at 15.625 g/ha [12]: 0%; pest or weed control at 62.5 g/ha [12]: 0%; pest or weed control at 250 g/ha [12]: 0%
CN1C[C@@H](c2ccc(C(F)(F)F)cc2)[C@H](C(=O)Nc2cccc3c2CCC3)C1=O (racemic) [Compound 1624]	0	0	0	0	0	10	0	0	20	0	0	0	20	60	80	0	0	80	10	20	pest or weed control at 250 g/ha [7]: 20%; pest or weed control at 15.625 g/ha [8]: 0%; pest or weed control at 62.5 g/ha [8]: 10%; pest or weed control at 250 g/ha [8]: 10%; pest or weed control at 15.625 g/ha [9]: 0%; pest or weed control at 62.5 g/ha [9]: 30%; pest or weed control at 250 g/ha [9]: 20%; plant injury at 15.625 g/ha (corn (Zea mays) [10]): 0%; plant injury at 62.5 g/ha (corn (Zea mays) [10]): 10%; plant injury at 250 g/ha (corn (Zea mays) [10]): 10%; pest or weed control at 15.625 g/ha [11]: 10%; pest or weed control at 62.5 g/ha [11]: 80%; pest or weed control at 250 g/ha [11]: 80%; pest or weed control at 15.625 g/ha [12]: 0%; pest or weed control at 62.5 g/ha [12]: 20%; pest or weed control at 250 g/ha [12]: 70%

Source: patent publication US12077503B2, “Substituted cyclic amides and their use as herbicides” (FMC CORPORATION, priority 2015, dated 2024)
